BindingDB's records for patent US12544382 (Beijing Tide Pharmaceutical Co., 2026)

The compounds below were run against Serine/threonine-protein kinase ATR (Homo sapiens, UniProt Q13535) (assay: ATR Kinase Activity Assay).
Procedure: Biotinylated protein derived from p53 (Eurofins, art. No.: 14-952) was phosphorylated with ATR kinase. The amount of phosphorylated protein was determined by time-resolved fluorescence in this assay. The amount of phosphorylated protein was detected by anti-p53-phospho-(serine 15)-K-specific antibody (Cisbio, art. No.: 61GSTDLA) and d2 labeled anti-GST antibody (Cisbio, art. No. 61P08KAE). Before the experiment, the following working solution was prepared as required: 1× reaction buffer (20 mM HEPES PH8.0, 1% glycerol, 0.01% Brij-35), dilution buffer (20 mM HEPES PH8.0, 1% glycerol, 0.01% Brij-35, 5 mM DTT and 1% BSA), stop solution (20 mM HEPES PH8.0, 1% glycerol, 0.01% Brij-35, 250 mM EDTA), detection buffer (50 mM HEPES pH7.0, 150 mM NaCl, 267 mM KF, 0.1% sodium cholate, 0.01% Tween-20, 0.0125% sodium azide). The reagents used above are purchased from Sigma or Invitrogen, except for those where the manufacturer was mentioned.

Serine/threonine-protein kinase ATR, sequence (Q13535 whole entry): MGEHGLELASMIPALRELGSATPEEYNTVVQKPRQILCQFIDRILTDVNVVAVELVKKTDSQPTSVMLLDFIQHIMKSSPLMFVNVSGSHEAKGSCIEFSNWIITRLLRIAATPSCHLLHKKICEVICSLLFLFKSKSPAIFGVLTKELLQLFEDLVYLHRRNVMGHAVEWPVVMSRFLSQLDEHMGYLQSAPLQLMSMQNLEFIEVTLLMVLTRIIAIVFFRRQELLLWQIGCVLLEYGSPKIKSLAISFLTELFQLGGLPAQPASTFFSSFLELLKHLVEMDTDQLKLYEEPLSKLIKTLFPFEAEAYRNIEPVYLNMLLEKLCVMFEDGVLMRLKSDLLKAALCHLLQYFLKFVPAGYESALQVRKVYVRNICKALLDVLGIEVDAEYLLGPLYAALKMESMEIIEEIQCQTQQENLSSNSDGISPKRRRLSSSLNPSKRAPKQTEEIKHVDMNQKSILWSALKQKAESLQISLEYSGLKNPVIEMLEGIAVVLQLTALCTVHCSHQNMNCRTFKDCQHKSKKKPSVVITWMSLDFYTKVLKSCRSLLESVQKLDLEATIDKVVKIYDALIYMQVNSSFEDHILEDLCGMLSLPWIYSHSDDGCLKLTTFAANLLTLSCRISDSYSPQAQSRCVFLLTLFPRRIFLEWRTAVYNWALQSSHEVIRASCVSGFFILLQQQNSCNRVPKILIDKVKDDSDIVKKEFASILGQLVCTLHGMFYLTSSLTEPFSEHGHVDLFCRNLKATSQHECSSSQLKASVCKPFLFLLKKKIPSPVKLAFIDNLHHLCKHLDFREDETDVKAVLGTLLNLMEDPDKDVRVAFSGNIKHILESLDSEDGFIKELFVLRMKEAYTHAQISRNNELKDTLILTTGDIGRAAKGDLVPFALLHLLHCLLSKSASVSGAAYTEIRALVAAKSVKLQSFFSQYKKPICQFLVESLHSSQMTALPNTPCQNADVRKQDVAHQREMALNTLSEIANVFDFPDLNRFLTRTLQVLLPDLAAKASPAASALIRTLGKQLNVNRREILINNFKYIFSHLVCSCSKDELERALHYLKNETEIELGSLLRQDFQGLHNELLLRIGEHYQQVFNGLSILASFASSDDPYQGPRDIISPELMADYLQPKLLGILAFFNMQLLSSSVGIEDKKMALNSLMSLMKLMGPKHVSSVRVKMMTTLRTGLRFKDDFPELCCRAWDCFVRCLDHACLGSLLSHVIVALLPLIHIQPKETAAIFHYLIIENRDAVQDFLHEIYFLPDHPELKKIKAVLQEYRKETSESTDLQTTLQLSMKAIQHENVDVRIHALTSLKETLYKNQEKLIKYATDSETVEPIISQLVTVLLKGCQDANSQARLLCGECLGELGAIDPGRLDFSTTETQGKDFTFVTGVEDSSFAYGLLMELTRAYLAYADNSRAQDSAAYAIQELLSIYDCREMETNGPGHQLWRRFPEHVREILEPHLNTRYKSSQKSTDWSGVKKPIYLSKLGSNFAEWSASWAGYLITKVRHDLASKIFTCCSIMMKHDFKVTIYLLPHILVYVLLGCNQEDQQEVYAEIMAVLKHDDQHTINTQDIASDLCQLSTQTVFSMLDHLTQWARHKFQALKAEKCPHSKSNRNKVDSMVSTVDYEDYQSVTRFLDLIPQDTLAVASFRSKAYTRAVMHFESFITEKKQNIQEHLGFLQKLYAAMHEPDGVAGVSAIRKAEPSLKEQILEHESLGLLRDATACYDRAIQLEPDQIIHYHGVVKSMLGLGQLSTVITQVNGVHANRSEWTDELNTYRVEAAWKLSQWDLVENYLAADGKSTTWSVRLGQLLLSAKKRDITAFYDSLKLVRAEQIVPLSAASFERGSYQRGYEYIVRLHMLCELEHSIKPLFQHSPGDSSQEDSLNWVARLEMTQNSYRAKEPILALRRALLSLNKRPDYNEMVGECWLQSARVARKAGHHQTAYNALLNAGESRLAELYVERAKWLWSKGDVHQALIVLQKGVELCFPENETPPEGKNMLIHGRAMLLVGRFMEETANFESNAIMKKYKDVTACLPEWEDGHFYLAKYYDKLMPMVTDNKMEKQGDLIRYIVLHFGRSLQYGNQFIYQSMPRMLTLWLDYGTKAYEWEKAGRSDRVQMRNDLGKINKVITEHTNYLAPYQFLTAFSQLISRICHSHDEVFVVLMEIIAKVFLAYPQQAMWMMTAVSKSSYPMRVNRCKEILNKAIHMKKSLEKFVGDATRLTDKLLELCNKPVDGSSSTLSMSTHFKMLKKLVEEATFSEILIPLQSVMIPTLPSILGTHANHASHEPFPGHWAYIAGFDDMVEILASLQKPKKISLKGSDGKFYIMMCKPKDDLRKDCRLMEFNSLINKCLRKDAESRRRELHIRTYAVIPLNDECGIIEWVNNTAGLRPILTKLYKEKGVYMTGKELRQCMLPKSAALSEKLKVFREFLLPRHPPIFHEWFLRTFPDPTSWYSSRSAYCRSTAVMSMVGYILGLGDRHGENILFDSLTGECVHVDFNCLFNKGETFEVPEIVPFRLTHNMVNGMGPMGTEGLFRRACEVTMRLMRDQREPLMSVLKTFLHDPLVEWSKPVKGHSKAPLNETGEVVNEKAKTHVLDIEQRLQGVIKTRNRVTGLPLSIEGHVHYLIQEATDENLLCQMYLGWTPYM

Row | Structure (SMILES) | IC50 [nM]
1 | Cc1nn(C)c(C)c1-c1cc(N2CCOC[C@H]2C)nc(-c2ccnc(C(F)F)c2)n1 [US12544382, Example A25] | 2320
2 | Cc1n[nH]c(C)c1-c1cc(N2CCOC[C@H]2C)nc(-c2ccnc3c2ccn3CC2CNC2)n1 [US12544382, Example A27] | 47
3 | CNc1nc2ccccc2n1-c1nc(-c2c(C)nn(C3CCNCC3)c2C(F)(F)F)cc(N2CCOC[C@H]2C)n1 [US12544382, Example D24] | 3
4 | CNc1nc2cc(Cl)ccc2n1-c1nc(-c2c(C)nn(C3CCNCC3)c2C(F)(F)F)cc(N2CCOC[C@H]2C)n1 [US12544382, Example D25] | 83
